Assay results published in patent publication US11021457B2, “Class of isoindolone-imide ring-1,3-dione-2-ene compounds, composition and use thereof” (WIGEN BIOMEDICINE TECHNOLOGY (SHANGHAI) CO., LTD., priority 2017, dated 2021).
Like-named read-outs stand apart in the source and are kept apart here.

Key:
[1] = system: SU-DHL6; test: Inhibition of tumor cell proliferation, CellTiter-Glo, SU-DHL6; type: cell-based; conditions: compound concentration 50 μM, 72 hours
How it was run: (§1)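 Luminescent ATP read-out (CellTiter-Glo) after 72 hours gave survival relative to untreated wells, corrected for blank. Activity categories were assigned from survival at 50 μM: ≤30% high, >30-60% moderate, 60-<90% low.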

[2] = system: BxPC-3; test: Inhibition of tumor cell proliferation, CellTiter-Glo, BxPC-3; type: cell-based; conditions: compound concentration 50 μM, 72 hours
How it was run: as §1

[3] = target: LC3B (Homo sapiens (Human), UniProt Q9GZQ8); test: Fluorescence polarization experiment targeting LC3B (GST-LC3B with FITC-labeled peptide)
[4] = system: RPMI-8226; test: Inhibition of tumor cell proliferation, CellTiter-Glo, RPMI-8226; type: cell-based; conditions: compound concentration 50 μM, 72 hours
How it was run: as §1

[5] = system: A549; test: Inhibition of tumor cell proliferation, CellTiter-Glo, A549; type: cell-based; conditions: compound concentration 50 μM, 72 hours
How it was run: as §1

[6] = system: K562; test: Inhibition of tumor cell proliferation, CellTiter-Glo, K562; type: cell-based; conditions: compound concentration 50 μM, 72 hours
How it was run: as §1

[7] = system: MDA-MB-453; test: Inhibition of tumor cell proliferation, CellTiter-Glo, MDA-MB-453; type: cell-based; conditions: compound concentration 50 μM, 72 hours
How it was run: as §1

[8] = GST-LC3B 180 nM, FITC-labeled peptide 18 nM, 25° C.

Row | SMILES | Inhibitory activity against proliferation (cell survival rate) SU-DHL6 [1] | Inhibitory activity against proliferation (cell survival rate) BxPC-3 [2] | IC50 [3, 8] | Inhibitory activity against proliferation (cell survival rate) RPMI-8226 [4] | Inhibitory activity against proliferation (cell survival rate) A549 [5] | Inhibitory activity against proliferation (cell survival rate) K562 [6] | Inhibitory activity against proliferation (cell survival rate) MDA-MB-453 [7] | cell survival rate (% of control) at 50 µM ([1]; Homo sapiens, SU-DHL-6, read-out: Inhibitory activity against proliferation (cell survival rate) SU-DHL6) | cell survival rate (%) at 50 µM ([2]; Homo sapiens, BXPC-3, read-out: Inhibitory activity against proliferation (cell survival rate) BxPC-3) | IC50 [3] | cell survival rate (% of control) at 50 µM ([4]; Homo sapiens, RPMI-8226, read-out: Inhibitory activity against proliferation (cell survival rate) RPMI-8226) | cell survival rate (% of control) at 50 µM ([5]; Homo sapiens, A549, read-out: Inhibitory activity against proliferation (cell survival rate) A549) | cell survival rate (%) at 50 µM ([6]; Homo sapiens, K562, read-out: Inhibitory activity against proliferation (cell survival rate) K562) | cell survival rate (%) at 50 µM ([7]; Homo sapiens, MDA-MB-453, read-out: Inhibitory activity against proliferation (cell survival rate) MDA-MB-453)
1 | O=C1CCC(N2Cc3c(NC=C4C(=O)CC(c5cc6[nH]ccc6cc5Br)CC4=O)cccc3C2=O)C(=O)N1 (stereo not shown) [Compound 149] | +++ (survival rate (%)≤30) | + (60≤survival rate (%)<90) | < 3 µM | +++ (survival rate (%)≤30) | + (60≤survival rate (%)<90) | +++ (survival rate (%)≤30) | +++ (survival rate (%)≤30) |  |  |  |  |  |  | 
2 | O=C1CCC(N2Cc3c(NC=C4C(=O)CC(c5c[nH]c6cccc(Cl)c56)CC4=O)cccc3C2=O)C(=O)N1 (stereo not shown) [Compound 150] | +++ (survival rate (%)≤30) | + (60≤survival rate (%)<90) | < 3 µM | ++ (30<survival rate (%)≤60) | +++ (survival rate (%)≤30) | ++ (30<survival rate (%)≤60) | +++ (survival rate (%)≤30) |  |  |  |  |  |  | 
3 | O=C1CCC(N2Cc3c(NC=C4C(=O)CC(c5cc6[nH]ccc6cc5Cl)CC4=O)cccc3C2=O)C(=O)N1 (stereo not shown) [Compound 151] | +++ (survival rate (%)≤30) | + (60≤survival rate (%)<90) | < 3 µM | +++ (survival rate (%)≤30) | + (60≤survival rate (%)<90) | +++ (survival rate (%)≤30) | +++ (survival rate (%)≤30) |  |  |  |  |  |  | 
4 | O=C1CCC(N2Cc3c(NC=C4C(=O)CC(c5c(Cl)ccc6[nH]ccc56)CC4=O)cccc3C2=O)C(=O)N1 (stereo not shown) [Compound 152] | +++ (survival rate (%)≤30) | ++ (30<survival rate (%)≤60) | < 3 µM | +++ (survival rate (%)≤30) | +++ (survival rate (%)≤30) | +++ (survival rate (%)≤30) | ++ (30<survival rate (%)≤60) |  |  |  |  |  |  | 
5 | COc1ccc(C2CC(=O)C(=CNc3cccc4c3CN(C3CCC(=O)NC3=O)C4=O)C(=O)C2)c(F)c1F (stereo not shown) [Compound 153] | +++ (survival rate (%)≤30) | + (60≤survival rate (%)<90) | < 3 µM | ++ (30<survival rate (%)≤60) | +++ (survival rate (%)≤30) | ++ (30<survival rate (%)≤60) | +++ (survival rate (%)≤30) |  |  |  |  |  |  | 
6 | O=C1CCC(N2Cc3c(NC=C4C(=O)CC(c5c(F)c(Cl)cc(Cl)c5Cl)CC4=O)cccc3C2=O)C(=O)N1 (stereo not shown) [Compound 154] | +++ (survival rate (%)≤30) | + (60≤survival rate (%)<90) | < 3 µM | +++ (survival rate (%)≤30) | + (60≤survival rate (%)<90) | +++ (survival rate (%)≤30) | +++ (survival rate (%)≤30) |  |  |  |  |  |  | 
7 | O=C1CCC(N2Cc3c(NC=C4C(=O)CC(c5ccccc5N5CCOCC5)CC4=O)cccc3C2=O)C(=O)N1 (stereo not shown) [Compound 155] | +++ (survival rate (%)≤30) | + (60≤survival rate (%)<90) | < 3 µM | ++ (30<survival rate (%)≤60) | +++ (survival rate (%)≤30) | ++ (30<survival rate (%)≤60) | +++ (survival rate (%)≤30) |  |  |  |  |  |  | 
8 | CC(=O)Nc1ccccc1C1CC(=O)C(=CNc2cccc3c2CN(C2CCC(=O)NC2=O)C3=O)C(=O)C1 (stereo not shown) [Compound 156] | +++ (survival rate (%)≤30) | + (60≤survival rate (%)<90) | < 3 µM | +++ (survival rate (%)≤30) | + (60≤survival rate (%)<90) | +++ (survival rate (%)≤30) | +++ (survival rate (%)≤30) |  |  |  |  |  |  | 
9 | O=C1CCC(N2Cc3c(NC(=O)CN4CCN(CCNC=C5C(=O)CC(c6ccccc6Br)CC5=O)CC4)cccc3C2=O)C(=O)N1 (stereo not shown) [Compound 157] |  |  |  |  |  |  |  | ≤ 30% | 30 to 60% | < 3 µM | ≤ 30% | ≤ 30% | ≤ 30% | 30 to 60%
10 | O=C1CCC(N2Cc3c(NC(=O)CN4CCN(CCNC=C5C(=O)CC(c6c(Cl)ccc(C(F)(F)F)c6Cl)CC5=O)CC4)cccc3C2=O)C(=O)N1 (stereo not shown) [Compound 158] | +++ (survival rate (%)≤30) | + (60≤survival rate (%)<90) | < 3 µM | ++ (30<survival rate (%)≤60) | +++ (survival rate (%)≤30) | ++ (30<survival rate (%)≤60) | +++ (survival rate (%)≤30) |  |  |  |  |  |  | 
